Data taken from patent US20190119282A1, “IMIDAZOPYRIDAZINES USEFUL AS INHIBITORS OF THE PAR-2 SIGNALING PATHWAY” (Vertex Pharmaceuticals Incorporated, priority 2013, published 2019).

Legend:
Settings in all cases: HT-29 cells, antagonist mode
[1] = target: T1, PAR2 (HT-29 cells, SLIGKV activation) (Homo sapiens, UniProt P55085); assay: Ca FLIPR TETRA assay, ANTAGONIST mode, stimulation with 8 μM SLIGKV; assay type: cell-based
T1 construct: host or cells: HT-29 cells
T1 sequence (P55085 26-397): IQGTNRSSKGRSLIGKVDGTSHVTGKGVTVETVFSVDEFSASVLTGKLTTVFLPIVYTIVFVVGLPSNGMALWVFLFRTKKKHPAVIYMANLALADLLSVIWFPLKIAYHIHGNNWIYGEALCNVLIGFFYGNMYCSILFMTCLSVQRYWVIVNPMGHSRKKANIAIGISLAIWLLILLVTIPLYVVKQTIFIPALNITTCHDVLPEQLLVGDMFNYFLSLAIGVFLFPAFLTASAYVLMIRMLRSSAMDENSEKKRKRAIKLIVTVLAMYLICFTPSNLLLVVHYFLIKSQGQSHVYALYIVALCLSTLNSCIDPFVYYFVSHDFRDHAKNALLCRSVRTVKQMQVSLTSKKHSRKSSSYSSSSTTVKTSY
In short: (§1)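 HT-29 cells grown overnight in 1% FBS McCoy's medium were loaded with calcium 5 dye (45 min 37 °C, 15 min r.t.). Compounds were added and Ca2+ read for direct activation, then after 30 min at r.t. cells were stimulated with 8 μM SLIGKV, 1 U/mL thrombin, 3.1 U/mL trypsin or 0.6 μM UTP (final).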

[2] = test system: UTP-stimulated Ca2+ response in HT-29 cells; assay: Ca FLIPR TETRA assay, ANTAGONIST mode, stimulation with 0.6 μM UTP; assay type: cell-based, human
In short: as §1

[3] = target: T2, PAR2 (HT-29 cells, trypsin activation) (Homo sapiens, UniProt P55085); assay: Ca FLIPR TETRA assay, ANTAGONIST mode, stimulation with 3.1 U/mL trypsin; assay type: cell-based
T2 construct: host or cells: HT-29 cells
T2 sequence (P55085 26-397): T1 sequence (P55085 26-397)
In short: as §1

[4] = test system: Thrombin-stimulated Ca2+ response in HT-29 cells; assay: Ca FLIPR TETRA assay, ANTAGONIST mode, stimulation with 1 U/mL Thrombin; assay type: cell-based, human
In short: as §1

[5] = Homo sapiens, stimulation with 0.6 μM UTP
[6] = stimulation with 3.1 U/mL trypsin
[7] = Homo sapiens, stimulation with 1 U/mL Thrombin

IC50 ([1]; stimulation with 8 μM SLIGKV) | IC50 [2, 5] | IC50 [3, 6] | IC50 [4, 7] | IC50 ([2]; stimulation with 0.6 μM UTP) | IC50 ([4]; stimulation with 1 U/mL Thrombin) | IC50 ([1]; 8 μM SLIGKV) | IC50 ([2]; Homo sapiens, 0.6 μM UTP) | IC50 ([3]; 3.1 U/mL trypsin) | IC50 ([4]; Homo sapiens, 1 U/mL Thrombin) | Compound
1 nM | > 1000 nM | 1 nM | > 1000 nM | – | – | – | – | – | – | COC(=O)[C@H]1CC[C@@H](C(=O)N2CCN(C(=O)c3cn4nc(-c5ccc(Br)cc5)cc(C(C)(C)C)c4n3)C(C)(C)C2)CC1 [Compound I-520]
625 nM | > 1000 nM | 480 nM | > 1000 nM | – | – | – | – | – | – | CC(C)c1cc(-c2ccc(Cl)cc2)nn2cc(C(=O)N3CCNCC3(C)C)nc12 [Compound I-521]
12 nM | > 1000 nM | 9.6 nM | > 1000 nM | – | – | – | – | – | – | CC1(C)C(=O)NCCN1C(=O)c1cn2nc(-c3ccc(F)cc3)cc(-c3ccc(F)cc3)c2n1 [Compound I-523]
1.4 nM | > 1000 nM | 1.7 nM | > 1000 nM | – | – | – | – | – | – | CC1(C)CN(C(=O)[C@H]2CC[C@@H](C(=O)O)CC2)CCN1C(=O)c1cn2nc(-c3ccc(F)cc3)cc(-c3ccc(F)cc3)c2n1 [Compound I-524]
0.6 nM | > 1000 nM | 0.8 nM | > 1000 nM | – | – | – | – | – | – | COC(=O)C1(C)CCC(C(=O)N2CCN(C(=O)c3cn4nc(-c5ccc(F)cc5)cc(C(C)(C)C)c4n3)C(C)(C)C2)CC1 (stereo not drawn) [Compound I-526]
4.3 nM | > 1000 nM | 3 nM | > 1000 nM | – | – | – | – | – | – | COC(=O)C1(C(=O)N2CCN(C(=O)c3cn4nc(-c5ccc(F)cc5)cc(C(C)(C)C)c4n3)C(C)(C)C2)CC1 [Compound I-527]
1.8 nM | > 1000 nM | 4.2 nM | > 1000 nM | – | – | – | – | – | – | COC(=O)C(C)(C)CC(=O)N1CCN(C(=O)c2cn3nc(-c4ccc(F)cc4)cc(C(C)(C)C)c3n2)C(C)(C)C1 [Compound I-528]
2.2 nM | > 1000 nM | 3.7 nM | > 1000 nM | – | – | – | – | – | – | COC(=O)CCC(=O)N1CCN(C(=O)c2cn3nc(-c4ccc(F)cc4)cc(C(C)(C)C)c3n2)C(C)(C)C1 [Compound I-529]
1.3 nM | 500 nM | 2.2 nM | 410 nM | – | – | – | – | – | – | COC(=O)C12CC(C(=O)N3CCN(C(=O)c4cn5nc(-c6ccc(F)cc6)cc(C(C)(C)C)c5n4)C(C)(C)C3)(C1)C2 [Compound I-530]
1.2 nM | > 1000 nM | 2 nM | > 1000 nM | – | – | – | – | – | – | CCOC(=O)/C=C/C(=O)N1CCN(C(=O)c2cn3nc(-c4ccc(F)cc4)cc(C(C)(C)C)c3n2)C(C)(C)C1 [Compound I-531]
0.8 nM | > 1000 nM | 1.1 nM | > 1000 nM | – | – | – | – | – | – | COC(=O)C1(C)CCC(C(=O)N2CCN(C(=O)c3cn4nc(-c5ccc(Cl)cc5)cc(C(C)(C)C)c4n3)C(C)(C)C2)CC1 (stereo not drawn) [Compound I-532]
4.7 nM | > 1000 nM | 7.9 nM | > 1000 nM | – | – | – | – | – | – | CC(C)(C)c1cc(C2CCC(F)(F)CC2)nn2cc(C(=O)N3CCN(C(=O)[C@H]4CC[C@@H](C(=O)O)CC4)CC3(C)C)nc12 [Compound I-533]
0.08 nM | > 1000 nM | 0.1 nM | > 1000 nM | – | – | – | – | – | – | CC1(C(=O)O)CCC(C(=O)N2CCN(C(=O)c3cn4nc(-c5ccc(Cl)cc5)cc(C(C)(C)C)c4n3)C(C)(C)C2)CC1 (stereo not drawn) [Compound I-534]
170 nM | > 1000 nM | 235 nM | > 1000 nM | – | – | – | – | – | – | CC(C)(C)c1cc(-c2ccc(N=[N+]=[N-])cc2)nn2cc(C(=O)N3CCNC(=O)C3(C)C)nc12 [Compound I-536]
0.8 nM | > 1000 nM | 1.2 nM | > 1000 nM | – | – | – | – | – | – | COC(=O)C1CC(C(=O)N2CCN(C(=O)c3cn4nc(-c5ccc(F)cc5)cc(C(C)(C)C)c4n3)C(C)(C)C2)C1 (stereo not drawn) [Compound I-537]
0.8 nM | > 1000 nM | 1.3 nM | > 1000 nM | – | – | – | – | – | – | COC(=O)[C@H]1CC[C@@H](C(=O)N2CCN(C(=O)c3cn4nc(-c5ccc(Cl)cc5)cc(C(C)C)c4n3)C(C)(C)C2)CC1 [Compound I-539]
4.2 nM | > 1000 nM | 8.2 nM | > 1000 nM | – | – | – | – | – | – | CC(C)c1cc(-c2ccc(Cl)cc2)nn2cc(C(=O)N3CCN(C(=O)[C@H]4C[C@H](O)C4)CC3(C)C)nc12 [Compound I-540]

IC50 ([1]; stimulation with 8 μM SLIGKV) | IC50 [2, 5] | IC50 [3, 6] | IC50 [4, 7] | IC50 ([2]; stimulation with 0.6 μM UTP) | IC50 ([4]; stimulation with 1 U/mL Thrombin) | IC50 ([1]; 8 μM SLIGKV) | IC50 ([2]; Homo sapiens, 0.6 μM UTP) | IC50 ([3]; 3.1 U/mL trypsin) | IC50 ([4]; Homo sapiens, 1 U/mL Thrombin) | Compound
1 nM | > 1000 nM | 1.5 nM | > 1000 nM | – | – | – | – | – | – | CC(C)c1cc(-c2ccc(Cl)cc2)nn2cc(C(=O)N3CCN(C(=O)[C@H]4C[C@@](C)(O)C4)CC3(C)C)nc12 [Compound I-541]
0.2 nM | > 1000 nM | 0.3 nM | > 1000 nM | – | – | – | – | – | – | CC(C)c1cc(-c2ccc(Cl)cc2)nn2cc(C(=O)N3CCN(C(=O)[C@H]4C[C@](O)(C(F)(F)F)C4)CC3(C)C)nc12 [Compound I-542]
3.2 nM | > 1000 nM | 4.8 nM | > 1000 nM | – | – | – | – | – | – | CC(C)c1cc(-c2ccc(Cl)cc2)nn2cc(C(=O)N3CCN(C(=O)[C@H]4C[C@@H](O)C4)CC3(C)C)nc12 [Compound I-543]
1.5 nM | > 1000 nM | 1.8 nM | > 1000 nM | – | – | – | – | – | – | COC(=O)C1CC(C(=O)N2CCN(C(=O)c3cn4nc(-c5ccc(Cl)cc5)cc(C(C)C)c4n3)C(C)(C)C2)C1 (stereo not drawn) [Compound I-544]
1.1 nM | – | 1.9 nM | – | > 1000 nM | > 1000 nM | – | – | – | – | COC(=O)C1CC(C(=O)N2CCN(C(=O)c3cn4nc(-c5ccc(Cl)cc5)cc(C(C)C)c4n3)C(C)(C)C2)C1 (stereo not drawn) [Compound I-545]
1.8 nM | > 1000 nM | 1.6 nM | > 1000 nM | – | – | – | – | – | – | COC(=O)[C@H]1CC[C@H](C(=O)N2CCN(C(=O)c3cn4nc(-c5ccc(Cl)cc5)cc(C(C)C)c4n3)C(C)(C)C2)CC1 [Compound I-546]
635 nM | > 1000 nM | > 1000 nM | > 1000 nM | – | – | – | – | – | – | C[C@H]1C(=O)NCCN1C(=O)c1cn2nc(-c3ccc(F)cc3)cc(C(C)(C)C)c2n1 [Compound I-547]
545 nM | > 1000 nM | > 1000 nM | > 1000 nM | – | – | – | – | – | – | C[C@@H]1C(=O)NCCN1C(=O)c1cn2nc(-c3ccc(F)cc3)cc(C(C)(C)C)c2n1 [Compound I-548]
27.5 nM | > 1000 nM | 57.5 nM | > 1000 nM | – | – | – | – | – | – | CC(C)c1cc(-c2ccc(Cl)cc2)nn2cc(C(=O)N3CCN(C(=O)[C@H]4CC[C@H](C(=O)O)CC4)CC3(C)C)nc12 [Compound I-549]
773 nM | > 30000 nM | 1050 nM | > 30000 nM | – | – | – | – | – | – | COC(=O)[C@H]1CC[C@@H](C(=O)N2CCN(C(=O)c3cn4nc(C(C)C)cc(C(C)C)c4n3)C(C)(C)C2)CC1 [Compound I-550]
970 nM | > 30000 nM | 1500 nM | > 30000 nM | – | – | – | – | – | – | CC(C)c1cc(C(C)C)c2nc(C(=O)N3CCN(C(=O)C4CCC(C(=O)O)CC4)CC3(C)C)cn2n1 (stereo not drawn) [Compound I-551, 4-[4-(6,8-diisopropylimidazo[1,2-b]pyridazine-2-carbonyl)-3,3-dimethyl-piperazine-1-carbonyl]cyclohexanecarboxylic acid]
720 nM | > 1000 nM | 720 nM | > 1000 nM | – | – | – | – | – | – | Cc1n[nH]c(C(=O)N2CCN(C(=O)c3cn4nc(-c5ccc(F)cc5)cc(C(C)C)c4n3)CC2)n1 [Compound I-552]
24 nM | > 1000 nM | 49.5 nM | > 1000 nM | – | – | – | – | – | – | CC(C)c1cc(-c2ccc(Cl)cc2)nn2cc(C(=O)N3CCN(C(=O)[C@H]4C[C@@H](C(=O)O)C4)CC3(C)C)nc12 [Compound I-553]
– | – | – | – | – | – | 9.3 nM | > 1000 nM | 11.2 nM | > 1000 nM | CC(C)c1cc(-c2ccc(Cl)cc2)nn2cc(C(=O)N3CCN(C(=O)[C@H]4C[C@H](C(=O)O)C4)CC3(C)C)nc12 [Compound I-554]
– | – | – | – | – | – | 4.2 nM | > 1000 nM | 7.8 nM | > 1000 nM | CC(C)(C)c1cc(-c2ccc(F)cc2)nn2cc(C(=O)N3CCN(C(=O)[C@H]4C[C@@H](C(=O)O)C4)CC3(C)C)nc12 [Compound I-555, (1S,3S)-3-(4-(8-(tert-butyl)-6-(4-fluorophenyl)imidazo[1,2-b]pyridazine-2-carbonyl)-3,3-dimethylpiperazine-1-carbonyl)cyclobutane-1-carboxylic acid]
– | – | – | – | – | – | 9 nM | > 1000 nM | 21 nM | > 1000 nM | CC(C)(C)c1cc(-c2ccc(F)cc2)nn2cc(C(=O)N3CCN(C(=O)[C@H]4C[C@H](C(=O)O)C4)CC3(C)C)nc12 [Compound I-556, (1R,3R)-3-(4-(8-(tert-butyl)-6-(4-fluorophenyl)imidazo[1,2-b]pyridazine-2-carbonyl)-3,3-dimethylpiperazine-1-carbonyl)cyclobutane-1-carboxylic acid]
